Experiments:
[1] = target: human HSP90 alpha protein (HSP90 N-terminal protein, amino acids 2-236) (Homo sapiens (Human), UniProt P07900); assay: Measurement of HSP90-binding activity (AlphaScreen competitive assay, biotin-labeled geldanamycin); conditions: concentration inhibiting binding of biotin-labeled geldanamycin (40 nM) to purified HSP90 to 50% of control; read-out: HSP-binding activity IC50
SK-BR-3 cells = assay: Measurement of cell growth inhibition (crystal violet staining method); type: cell-based; conditions: Homo sapiens; breast cancer SK-BR-3 cells, 72 hr culture with test substance

| IC50 [1] [nM] | IC50 (SK-BR-3 cells) [nM] | Structure (SMILES) |
| --- | --- | --- |
| 330 | 100 | CC(C)c1nn(-c2ccc(C(N)=O)c(NCCN3CCOCC3)c2)c2nccc(-c3cnc4ccccc4c3)c12 [Example 31, 4-{3-Isopropyl-4-(quinolin-3-yl)-1H-pyrazolo[3,4-b]pyridin-1-yl}-2-(2-morpholinoethylamino)benzamide] |
| 180 | 130 | CCCNc1cc(C(N)=O)ccc1-n1nc(C(C)C)c2c(-n3cnc(-c4cnn(C)c4)c3)ccnc21 [Example 122, 4-{3-Isopropyl-4-(4-(1-methyl-1H-pyrazol-4-yl)-1H-imidazol-1-yl)-1H-pyrazolo[3,4-b]pyridin-1-yl}-3-(propylamino)benzamide] |
| 530 | 80 | CCNc1cc(-n2nc(C(F)(F)F)c3c(-n4cnc(-c5cccnc5)c4)ccnc32)ccc1C(N)=O [Example 178, 2-(Ethylamino)-4-{4-(4-(pyridin-3-yl)-1H-imidazol-1-yl)-3-(trifluoromethyl)-1H-pyrazolo[3,4-b]pyridin-1-yl}benzamide] |
| 320 | 70 | CC(C)c1nn(-c2ccc(C(N)=O)c(N(O)C3CCCCC3)c2)c2nccc(-n3cnc(-c4cnn(Cc5ccccc5)c4)c3)c12 [Example 93, 2-(Hydroxycyclohexylamino)-4-{3-isopropyl-4-(4-(1-benzyl-1H-pyrazol-4-yl)-1H-imidazol-1-yl)-1H-pyrazolo[3,4-b]pyridin-1-yl}benzamide] |
| 170 | 30 | CC(C)Nc1cc(-n2nc(C(C)C)c3c(-n4cnc(-c5cn[nH]c5)c4)ccnc32)ccc1C(N)=O [Example 143, 4-{4-(4-(1H-Pyrazol-4-yl)-1H-imidazol-1-yl)-3-isopropyl-1H-pyrazolo[3,4-b]pyridin-1-yl}-2-(isopropylamino)benzamide] |
| 100 | 80 | Cn1cc(-c2cn(-c3ccnc4c3c(C(F)(F)F)nn4-c3ccc(C(N)=O)cc3NCC(F)F)cn2)cn1 [Example 167, 3-(2,2-Difluoroethylamino)-4-{4-(4-(1-methyl-1H-pyrazol-4-yl)-1H-imidazol-1-yl)-3-(trifluoromethyl)-1H-pyrazolo[3,4-b]pyridin-1-yl}benzamide] |
| 200 | 130 | NC(=O)c1ccc(-n2nc(C(F)(F)F)c3c(-n4cnc(-c5cccnc5)c4)ccnc32)c(NC2CCC2)c1 [Example 182, 3-(Cyclobutylamino)-4-{4-(4-(pyridin-3-yl)-1H-imidazol-1-yl)-3-(trifluoromethyl)-1H-pyrazolo[3,4-b]pyridin-1-yl}benzamide] |
| 230 | 40 | CC(C)c1nn(-c2ccc(C(N)=O)c(NC3CCC(O)CC3)c2)c2nccc(-n3cnc(-c4ccoc4)c3)c12 (stereo not shown) [Example 90, 4-{4-(4-(Furan-3-yl)-1H-imidazol-1-yl)-3-isopropyl-1H-pyrazolo[3,4-b]pyridin-1-yl}-2-(4-hydroxycyclohexylamino)benzamide] |
| 110 | 70 | CC(C)Nc1cc(C(N)=O)ccc1-n1nc(C(F)(F)F)c2c(-n3cnc(-c4cnn(C)c4)c3)ccnc21 [Example 164, 3-(Isopropylamino)-4-{4-(4-(1-methyl-1H-pyrazol-4-yl)-1H-imidazol-1-yl)-3-(trifluoromethyl)-1H-pyrazolo[3,4-b]pyridin-1-yl}benzamide] |
| 130 | 70 | CC(C)c1nn(-c2ccc(C(N)=O)c(NC3CCC(O)CC3)c2)c2nccc(-n3cnc(-n4ccnc4)c3)c12 (stereo not shown) [Example 92, 4-{4-(1′H-1,4′-Biimidazol-1′-yl)-3-isopropyl-1H-pyrazolo[3,4-b]pyridin-1-yl}-2-(4-hydroxycyclohexylamino)benzamide] |

Further lines, the molecule ahead of its results:

| Structure (SMILES) | IC50 [1] [nM] | IC50 (SK-BR-3 cells) [nM] |
| --- | --- | --- |
| C=Cc1cn(-c2ccc(C(N)=O)c(N[C@H]3CC[C@H](O)CC3)c2)c2nccc(-c3cnc4ccccc4c3)c12 [Example 46, 2-(Trans-4-hydroxycyclohexylamino)-4-{3-vinyl-4-(quinolin-3-yl)-1H-pyrrolo[2,3-b]pyridin-1-yl}benzamide] | 150 | 20 |
| Cc1cn(-c2ccc(C(N)=O)c(N[C@@H]3CCCC[C@H]3N)c2)c2nccc(-c3cnc4ccccc4c3)c12 (relative stereo) [Example 64, 2-(Trans-2-aminocyclohexylamino)-4-{3-methyl-4-(quinolin-3-yl)-1H-pyrrolo[2,3-b]pyridin-1-yl}benzamide] | 420 | 590 |
| CC(C)c1cc(C(N)=O)ccc1-n1nc(C(C)C)c2c(-n3cnc(-c4cnn(C)c4)c3)ccnc21 [Example 104, 3-Isopropyl-4-{3-isopropyl-4-(4-(1-methyl-1H-pyrazol-4-yl)-1H-imidazol-1-yl)-1H-pyrazolo[3,4-b]pyridin-1-yl}benzamide] | 120 | 200 |
| CCCc1cc(C(N)=O)ccc1-n1nc(C(C)C)c2c(-n3cnc(-c4cnn(C)c4)c3)ccnc21 [Example 103, 4-{3-Isopropyl-4-(4-(1-methyl-1H-pyrazol-4-yl)-1H-imidazol-1-yl)-1H-pyrazolo[3,4-b]pyridin-1-yl}-3-propylbenzamide] | 120 | 170 |
| CCNc1c(C(N)=O)ccc(-n2nc(C(C)C)c3c(-n4cnc(-c5cnn(C)c5)c4)ccnc32)c1C [Example 132, 2-(Ethylamino)-4-{3-isopropyl-4-(4-(1-methyl-1H-pyrazol-4-yl)-1H-imidazol-1-yl)-1H-pyrazolo[3,4-b]pyridin-1-yl}-3-methylbenzamide] | 120 | 100 |
| CC(C)c1nn(-c2ccc(C(N)=O)c(N[C@H]3CC[C@H](O)CC3)c2)c2nccc(-n3cnc(-c4ccccc4)c3)c12 [Example 37, 2-(Trans-4-hydroxycyclohexylamino)-4-{3-isopropyl-4-(4-phenyl-1H-imidazol-1-yl)-1H-pyrazolo[3,4-b]pyridin-1-yl}benzamide] | 250 | 100 |
| COCCNc1cc(C(N)=O)ccc1-n1nc(C(F)(F)F)c2c(-n3cnc(-c4cnn(C)c4)c3)ccnc21 [Example 168, 3-(2-Methoxyethylamino)-4-{4-(4-(1-methyl-1H-pyrazol-4-yl)-1H-imidazol-1-yl)-3-(trifluoromethyl)-1H-pyrazolo[3,4-b]pyridin-1-yl}benzamide] | 70 | 60 |
| Cc1cc(C(N)=O)ccc1-n1nc(C(C)C)c2c(-n3cnc(-c4ccncc4)c3)ccnc21 [Example 149, 4-{3-Isopropyl-4-(4-(pyridin-4-yl)-1H-imidazol-1-yl)-1H-pyrazolo[3,4-b]pyridin-1-yl}-3-methylbenzamide] | 390 | 690 |
| CCc1cn(-c2ccc(C(N)=O)c(NCCCCO)c2)c2nccc(-c3cnc4ccccc4c3)c12 [Example 74, 4-{3-Ethyl-4-(quinolin-3-yl)-1H-pyrrolo[2,3-b]pyridin-1-yl}-2-(4-hydroxybutylamino)benzamide] | 340 | 270 |
| COc1cccc2c1ccn2-c1ccc(C(N)=O)c(NC2CCC(O)CC2)c1 (stereo not shown) [Comparative Example 2, reference compound] | > 100000 | > 10000 |
| CC(C)c1nn(-c2ccc(C(N)=O)cc2Cl)c2nccc(-n3cnc(-c4cnn(C)c4)c3)c12 [Example 99, 3-Chloro-4-{3-isopropyl-4-(4-(1-methyl-1H-pyrazol-4-yl)-1H-imidazol-1-yl)-1H-pyrazolo[3,4-b]pyridin-1-yl}benzamide] | 520 | 690 |
| CC(C)Nc1cc(C(N)=O)ccc1-n1nc(C(F)(F)F)c2c(-n3cnc(-c4cccnc4)c3)ccnc21 [Example 181, 3-(Isopropylamino)-4-{4-(4-(pyridin-3-yl)-1H-imidazol-1-yl)-3-(trifluoromethyl)-1H-pyrazolo[3,4-b]pyridin-1-yl}benzamide] | 140 | 120 |
| CC(C)c1nn(-c2ccc(C(N)=O)cc2NCC(F)F)c2nccc(-n3cnc(-c4cnn(C)c4)c3)c12 [Example 123, 3-(2,2-Difluoroethylamino)4-{3-isopropyl-4-(4-(1-methyl-1H-pyrazol-4-yl)-1H-imidazol-1-yl)-1H-pyrazolo[3,4-b]pyridin-1-yl}benzamide] | 190 | 120 |
